According to patent US8969388B1, “Substituted pyrazolone compounds and methods of use” (Calitor Sciences, LLC, priority 2012, dated 2015):
Where two headings read alike, the source gives them in different places. One block for each compound: values may come before it.

Columns and labels:
c-Met (h) [1] = biological target: T1, c-Met (h) (Homo sapiens, UniProt P08581); assay: c-Met (h) kinase assay (IC50); assay type: biochemical; conditions: cells marked (IC50) in the Kd table
T1 construct: host or cells: E. coli BL21-derived host (T7 phage) or HEK-293
Description: (§1) The above assay procedure can be used to determine the IC50 for inhibition and/or the inhibition constant, Ki. The IC50 is defined as the concentration of compound required to reduce the enzyme activity by 50% under the condition of the assay. The IC50 value is estimated by preparing a 10 point curve using a ½ log dilution series (for example, a typical curve may be prepared using the following compound concentrations; 100 μM, 30 μM, 10 μM, 3 μM, 1 μM, 0.3 μM, 0.1 μM, 0.03 μM, 0.01 μM and 0 μM).
(§2) (specific activity approx. 500 cpm/pmol, concentration as required).
(§3) The kinase assays described herein can be performed at Millipore UK Ltd, Dundee Technology Park, Dundee DD2 1SW, UK c-Met (h) Assay.

[2] = Pharmacokinetics after intravenous and oral administration in rats; assay type: in vivo; conditions: for F: oral bioavailability, oral dose not given; for AUC(0-t) / half-life / Vd: rat, plasma; for clearance (CL) after iv dosing / AUC(0-t) / half-life / Vd: iv dosing; for Vd: read-out: Vss
Description: The compounds disclosed herein are assessed in pharmacokinetic studies in mice, rats, dogs or monkeys. The compounds are administered as a water solution, 2% HPMC+1% TWEEN®80 in water solution, 5% DMSO+5% solutol in saline, 4% MC suspension or capsule. For the intravenous administration, the animals are generally given at 1 or 2 mg/kg dose. For the oral (p.o.) dosing, mice and rats are generally given 5 or 10 mg/kg dose, and dogs and monkeys are generally given 10 mg/kg dose. The blood samples (0.3 mL) are drawn at 0.25, 0.5, 1.0, 2.0, 3.0, 4.0, 6.0, 8.0, 12 and 24 h time points or 0.083, 0.25, 0.5, 1.0, 2.0, 4.0, 6.0, 8.0 and 24 h time points and centrifuged at 3,000 or 4000 rpm for 2 to 10 min. The plasma solutions are collected, stored at −20° C. or −70° C. until analyzed by LC/MS/MS as described above.

KDR (h) [3] = biological target: T2, KDR (h) (Homo sapiens, UniProt P35968); assay: KDR (h) (VEGF-R2 (h)) kinase assay (IC50); assay type: biochemical; conditions: cells marked (IC50) in the Kd table
T2 construct: host or cells: E. coli BL21-derived host (T7 phage) or HEK-293
Description: as §1
KDR (h) (VEGF-R2 (h)) Assay
as §2, §3

[4] = Compound stability in rat liver microsomes; assay type: in vitro ADME
Description: (§4) Human or rat liver microsomes incubations were conducted in duplicate in polypropylene tubes. The typical incubation mixtures consisted of human liver microsomes (0.5 mg protein/mL), compounds of interest (5 μM) and NADPH (1.0 mM) in a total volume of 200 μL potassium phosphate buffer (PBS, 100 mM, pH 7.4). Compounds were dissolved in DMSO and diluted with PBS such that the final concentration of DMSO was 0.05%. The enzymatic reactions were commenced with the addition of protein after a 3-min preincubation and incubated in a water bath open to the air at 37° C. Reactions were terminated at various time points (0, 5, 10, 15, 30, 60 min) by adding equal volume of ice-cold acetonitrile. The samples were stored at −80° C. until LC/MS/MS assays.
(§5) The concentrations of compounds in the incubation mixtures of human liver microsomes were determined by a LC/MS/MS method. The ranges of the linearity in the concentration range were determined for each tested compounds.
(§6) A parallel incubation was performed using denatured microsomes as the negative control, and reactions were terminated at various time points (0, 15, 60 min) after incubation at 37° C.
(§7) Dextromethorphan (70 μM) was selected as the positive control, and reactions were terminated at various time points (0, 5, 10, 15, 30, 60 min) after incubation at 37° C. Both positive and negative control samples were included in each assay to ensure the integrity of the microsomal incubation system.
(§8) The concentrations of compounds in human liver microsome incubations were plotted as a percentage of the relevant zero time point control for each reaction. The in vivo CLint were extrapolated (ref: Naritomi Y, Terashita S, Kimura S, Suzuki A, Kagayama A, Sugiyama Y. Prediction of human hepatic clearance from in vivo animal experiments and in vitro metabolic studies with liver microsomes from animals and humans. Drug Metabolism and Disposition 2001, 29: 1316-1324.)

[5] = Compound stability in human liver microsomes; assay type: in vitro ADME; conditions: pH 7.4
Description: as §4, §5, §6, §7, §8

U87MG glioblastoma cells = assay: U87MG tumor xenograft model, tumor growth inhibition; assay type: in vivo, athymic nude mice (BALB/cA nu/nu); conditions: mice, oral gavage
Description: The efficacy of compounds disclosed herein was evaluated in a standard murine model of tumorigenesis. Human tumor cells (U87MG glioblastoma cells from ATCC) were expended in culture, harvested, and injected subcutaneously onto the rear flank of 6-7 week old female athymic nude mice (BALB/cA nu/nu, Hunan SLAC Laboratory Animal, Co.) (n=6-10 for vehicle group and for each dosing group). When tumors reached a volume of 100-250 mm^3, animals were randomly divided into vehicle control (for example, 5% DMSO+70% Captisol® (30%), 7% HCl (pH1), 18% Captisol® (30%); or 7% DMSO, 7% HCl (pH1), 70% Captisol® (30%), 16% Captisol® (30%), or the like) and compound groups. Subsequent administration of compound by oral gavage begins anywhere from day 0 to day 15 post tumor cell challenge and generally continues with once a day for the duration of the experiment.
Progression of tumor growth is assessed by tumor volumes and recorded as a function of time. The long (L) and short (W) axes of the subcutaneous tumors were measured with calipers twice weekly, and the tumor volume (TV) calculated as (L×W^2)/2). TGI was calculated from the difference between the median tumor volumes of vehicle-treated and drug-treated mice, expressed as a percentage of the median tumor volume of the vehicle-treated control group, by the following relation:
[formula] Initial statistical analysis is done by repeated measures analysis of variance (RMANOVA), followed by Scheffe psot hoc testing for multiple comparisons. Vehicle alone (5% DMSO+70% Captisol® (30%), 7% HCl (pH1), 18% Captisol® (30%); or 7% DMSO, 7% HCl (pH1), 70% Captisol® (30%), 16% Captisol® (30%), or the like) is the negative control.

c-Met (h) [6] = biological target: T1, c-Met (h); assay: KINOMEscan competition binding assay, c-Met (h)
Description: (§9) Alternatively, the kinase activities of the compounds can be measured using KINOMEscan™, which is based on a competition binding assay that quantitatively measures the ability of a compound to compete with an immobilized, active-site directed ligand. The assay was performed by combining three components: DNA-tagged kinase; immobilized ligand; and a test compound. The ability of the test compound to compete with the immobilized ligand was measured via quantitative PCR of the DNA tag.
(§10) For most assays, kinase-tagged T7 phage strains were prepared in an E. coli host derived from the BL21 strain. E. coli were grown to log-phase and infected with T7 phage and incubated with shaking at 32° C. until lysis. The lysates were centrifuged and filtered to remove cell debris. The remaining kinases were produced in HEK-293 cells and subsequently tagged with DNA for qPCR detection. Streptavidin-coated magnetic beads were treated with biotinylated small molecule ligands for 30 minutes at room temperature to generate affinity resins for kinase assays. The liganded beads were blocked with excess biotin and washed with blocking buffer (SEABLOCK™ (Pierce), 1% BSA, 0.05% TWEEN®20, 1 mM DTT) to remove unbound ligand and to reduce nonspecific binding. Binding reactions were assembled by combining kinases, liganded affinity beads, and test compounds in 1× binding buffer (20% SEABLOCK™, 0.17×PBS, 0.05% TWEEN®20, 6 mM DTT). All reactions were performed in polystyrene 96-well plates in a final volume of 0.135 mL. The assay plates were incubated at room temperature with shaking for 1 hour and the affinity beads were washed with wash buffer (1×PBS, 0.05% TWEEN®20). The beads were then re-suspended in elution buffer (1×PBS, 0.05% TWEEN®20, 0.5 μM non-biotinylated affinity ligand) and incubated at room temperature with shaking for 30 minutes. The kinase concentration in the eluates was measured by qPCR.
(§11) The kinase assays described herein were performed using KINOMEscan™ Profiling Service at DiscoveRx Corporation, 42501 Albrae St. Fremont, Calif.

KDR (h) [7] = biological target: T2, KDR (h); assay: KINOMEscan competition binding assay, KDR (h)
Description: as §9, §10, §11

T1 sequence (P08581 25-1390): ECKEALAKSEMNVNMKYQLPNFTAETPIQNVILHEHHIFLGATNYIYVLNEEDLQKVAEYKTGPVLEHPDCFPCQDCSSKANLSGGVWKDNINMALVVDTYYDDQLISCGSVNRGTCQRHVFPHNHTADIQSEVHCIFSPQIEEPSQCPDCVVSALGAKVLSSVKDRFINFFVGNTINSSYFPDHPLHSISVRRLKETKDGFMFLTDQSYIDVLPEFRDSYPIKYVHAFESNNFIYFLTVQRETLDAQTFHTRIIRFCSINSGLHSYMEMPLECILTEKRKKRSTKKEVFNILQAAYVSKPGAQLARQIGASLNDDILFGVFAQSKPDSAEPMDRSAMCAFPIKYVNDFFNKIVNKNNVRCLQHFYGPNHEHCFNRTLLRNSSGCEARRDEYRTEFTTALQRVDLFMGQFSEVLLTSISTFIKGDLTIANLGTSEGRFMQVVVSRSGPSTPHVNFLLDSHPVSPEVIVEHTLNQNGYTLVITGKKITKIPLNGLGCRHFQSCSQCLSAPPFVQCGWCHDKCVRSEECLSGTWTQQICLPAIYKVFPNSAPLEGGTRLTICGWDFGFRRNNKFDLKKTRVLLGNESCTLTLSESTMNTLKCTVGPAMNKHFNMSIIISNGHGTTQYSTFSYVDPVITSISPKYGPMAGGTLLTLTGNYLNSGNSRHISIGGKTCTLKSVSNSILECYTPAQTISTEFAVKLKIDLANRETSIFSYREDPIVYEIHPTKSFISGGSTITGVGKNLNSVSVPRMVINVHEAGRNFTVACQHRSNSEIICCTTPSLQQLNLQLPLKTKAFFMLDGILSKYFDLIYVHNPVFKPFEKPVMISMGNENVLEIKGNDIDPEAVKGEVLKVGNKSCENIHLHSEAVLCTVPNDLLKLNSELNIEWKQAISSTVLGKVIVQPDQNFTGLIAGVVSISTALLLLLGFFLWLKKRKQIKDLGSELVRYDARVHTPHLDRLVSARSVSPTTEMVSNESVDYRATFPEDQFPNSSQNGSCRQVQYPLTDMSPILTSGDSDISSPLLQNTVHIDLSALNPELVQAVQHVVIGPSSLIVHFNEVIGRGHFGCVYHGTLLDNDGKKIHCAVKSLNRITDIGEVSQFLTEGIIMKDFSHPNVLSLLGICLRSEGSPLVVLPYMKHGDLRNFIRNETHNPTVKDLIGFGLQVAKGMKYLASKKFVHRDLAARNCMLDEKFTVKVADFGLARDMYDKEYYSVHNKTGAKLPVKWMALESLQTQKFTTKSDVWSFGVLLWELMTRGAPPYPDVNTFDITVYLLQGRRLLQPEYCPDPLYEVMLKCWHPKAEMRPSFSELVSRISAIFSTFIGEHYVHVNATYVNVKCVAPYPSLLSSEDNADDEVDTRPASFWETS
T2 sequence (P35968 20-1356): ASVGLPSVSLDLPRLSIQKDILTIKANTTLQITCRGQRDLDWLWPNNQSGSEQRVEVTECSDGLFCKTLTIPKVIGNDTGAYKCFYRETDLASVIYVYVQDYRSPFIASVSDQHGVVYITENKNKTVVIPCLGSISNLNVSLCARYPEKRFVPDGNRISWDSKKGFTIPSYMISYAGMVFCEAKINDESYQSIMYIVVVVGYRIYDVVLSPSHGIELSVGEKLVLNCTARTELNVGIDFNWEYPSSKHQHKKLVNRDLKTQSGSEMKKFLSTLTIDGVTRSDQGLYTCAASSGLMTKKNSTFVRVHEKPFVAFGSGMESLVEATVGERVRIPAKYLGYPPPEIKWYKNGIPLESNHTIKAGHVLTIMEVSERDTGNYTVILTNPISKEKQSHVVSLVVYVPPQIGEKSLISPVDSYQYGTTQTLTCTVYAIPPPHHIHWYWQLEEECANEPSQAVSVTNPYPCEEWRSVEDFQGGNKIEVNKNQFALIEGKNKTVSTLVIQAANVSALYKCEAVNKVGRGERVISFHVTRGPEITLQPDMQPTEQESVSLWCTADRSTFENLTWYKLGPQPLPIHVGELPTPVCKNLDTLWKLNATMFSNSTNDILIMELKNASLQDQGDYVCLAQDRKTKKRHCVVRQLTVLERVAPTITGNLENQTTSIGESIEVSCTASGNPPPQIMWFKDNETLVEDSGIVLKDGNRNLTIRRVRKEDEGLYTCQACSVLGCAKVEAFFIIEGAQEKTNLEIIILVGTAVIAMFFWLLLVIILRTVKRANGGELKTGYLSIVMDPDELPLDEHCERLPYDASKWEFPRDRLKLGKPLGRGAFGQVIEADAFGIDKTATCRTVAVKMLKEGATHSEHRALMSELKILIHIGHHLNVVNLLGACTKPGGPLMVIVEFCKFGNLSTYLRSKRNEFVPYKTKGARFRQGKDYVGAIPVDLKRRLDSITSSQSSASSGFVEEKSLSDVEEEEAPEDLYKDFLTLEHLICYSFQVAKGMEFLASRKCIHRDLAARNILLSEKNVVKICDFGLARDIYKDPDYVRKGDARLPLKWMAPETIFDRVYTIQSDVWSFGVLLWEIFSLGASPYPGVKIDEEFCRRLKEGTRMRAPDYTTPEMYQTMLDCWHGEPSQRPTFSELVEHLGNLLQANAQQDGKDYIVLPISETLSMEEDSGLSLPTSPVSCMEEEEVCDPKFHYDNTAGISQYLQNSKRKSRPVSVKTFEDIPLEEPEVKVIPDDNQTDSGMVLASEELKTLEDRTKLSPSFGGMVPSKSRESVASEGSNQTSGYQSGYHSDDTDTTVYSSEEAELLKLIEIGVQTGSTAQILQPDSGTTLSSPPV

IC50 (c-Met (h) [1]): 611 nM
clearance (CL) after iv dosing ([2]; 1 mg/kg): 23.7 mL/min/kg
F ([2]; iv dose 1 mg/kg): 31.2%
AUC(0-t) ([2]; 1 mg/kg): 706 ng·h/mL
half-life ([2]; 1 mg/kg): 1.13 h
Vd ([2]; 1 mg/kg): 0.68 L/kg
IC50 (KDR (h) [3]): > 3000 nM
SMILES: Cc1c(C(=O)Nc2ccc(Oc3ccnc(N)c3)cc2)c(=O)n(-c2ccccc2)n1C [Ex. 1, N-(4-((2-aminopyridin-4-yl)oxy)phenyl)-1,5-dimethyl-3-oxo-2-phenyl-2,3-dihydro-1H-pyrazole-4-carboxamide]

clearance (CL) after iv dosing ([2]; 1 mg/kg): 17 mL/min/kg
F ([2]; iv dose 1 mg/kg): 177.1%
AUC(0-t) ([2]; 1 mg/kg): 922 ng·h/mL
half-life ([2]; 1 mg/kg): 2.69 h
Vd ([2]; 1 mg/kg): 1.61 L/kg
half-life at 5 μM ([4]; pH 7.4, compound 5 μM, NADPH, 37° C., read-out: Rat T1/2): 1.02 h
CLint scaled at 5 μM ([4]; pH 7.4, in vivo CLint extrapolated): 40.6 mL/min/kg
half-life at 5 μM ([5]; human liver microsomes 0.5 mg protein/mL, compound 5 μM, NADPH, 37° C., read-out: Human T1/2): 12.4 h
CLint scaled at 5 μM ([5]; human liver microsomes, in vivo CLint extrapolated): 2.34 mL/min/kg
Kd (c-Met (h) [6]): 4.4 nM
Kd (KDR (h) [7]): 23 nM
SMILES: Cc1c(C(=O)Nc2ccc(Oc3ccnc(N)c3Cl)c(F)c2)c(=O)n(-c2ccccc2)n1C [Ex. 3, N-(4-((2-amino-3-chloropyridin-4-yl)oxy)-3-fluorophenyl)-1,5-dimethyl-3-oxo-2-phenyl-2,3-dihydro-1H-pyrazole-4-carboxamide]
TGI % (on last day of dosing) (U87MG glioblastoma cells; 10 mg/kg, 16 days): 53%
TGI % (on last day of dosing) (U87MG glioblastoma cells; 20 mg/kg, 16 days): 68%
TGI % (on last day of dosing) (U87MG glioblastoma cells; 40 mg/kg, 16 days): 85%

clearance (CL) after iv dosing ([2]; 2 mg/kg): 10.2 mL/min/kg
F ([2]; iv dose 2 mg/kg): 85.1%
AUC(0-t) ([2]; 2 mg/kg): 3350 ng·h/mL
half-life ([2]; 2 mg/kg): 0.82 h
Vd ([2]; 2 mg/kg): 0.51 L/kg
Kd (c-Met (h) [6]): 4.8 nM
Kd (KDR (h) [7]): 1500 nM
SMILES: Cc1c(C(=O)Nc2cc(F)c(Oc3ccnc(N)c3)cc2F)c(=O)n(-c2ccccc2)n1C [Ex. 8, N-(4-((2-aminopyridin-4-yl)oxy)-2,5-difluorophenyl)-1,5-dimethyl-3-oxo-2-phenyl-2,3-dihydro-1H-pyrazole-4-carboxamide]
TGI % (on last day of dosing) (U87MG glioblastoma cells; 6 mg/kg, 14 days): 13%
TGI % (on last day of dosing) (U87MG glioblastoma cells; 20 mg/kg, 14 days): 25%
TGI % (on last day of dosing) (U87MG glioblastoma cells; 60 mg/kg, 14 days): 43%
